Results as given in patent publication US4336375A, “Cephalosporanic acid derivatives” (American Cyanamid Company, priority 1980, dated 1982).
Converted amounts (≈) assume the structure as drawn. Where two headings read alike, the source gives them in different places.

Key:
Assay type in all cases: cell-based
Proteus rettgeri N76-1 = test: In vitro MIC, agar dilution, Proteus rettgeri N76-1; conditions: Providencia rettgeri, N761; Proteus rettgeri N76-1; agar dilution, 35° C., 18 hours, nutrient agar; read-out: Minimal Inhibitory Concentration
Description: (§1) The in vitro activity of representative compounds of the present invention are given in the following Table I in terms of minimal inhibitory concentration. The test used was the standard agar dilution test using a Steers multiple inocula replicator and incubating at 35° C. for 18 hours in conventional nutrient agar.

[1] = system: Staphylococcus aureus Q74-6; test: In vitro MIC, agar dilution, Staphylococcus aureus Q74-6; conditions: Q746; Staphylococcus aureus Q74-6; agar dilution, 35° C., 18 hours, nutrient agar; read-out: Minimal Inhibitory Concentration
Description: as §1

Escherichia coli OSU75-1 = test: In vitro MIC, agar dilution, Escherichia coli OSU75-1; conditions: OSU751, 35° C., 18 hours, nutrient agar, read-out: Minimal Inhibitory Concentration
Description: as §1

[2] = system: Pseudomonas aeruginosa G236; test: In vitro MIC, agar dilution, Pseudomonas aeruginosa G236; conditions: read-out: Minimal Inhibitory Concentration
Description: as §1

[3] = system: Klebsiella pneumoniae MA75-1; test: In vitro MIC, agar dilution, Klebsiella pneumoniae MA75-1; conditions: MA751; Klebsiella pneumoniae MA75-1; agar dilution, 35° C., 18 hours, nutrient agar; read-out: Minimal Inhibitory Concentration
Description: as §1

Escherichia coli 311 = test: In vitro MIC, agar dilution, Escherichia coli 311; conditions: 35° C., 18 hours, nutrient agar, read-out: Minimal Inhibitory Concentration
Description: as §1

[4] = system: Klebsiella pneumoniae W75-2; test: In vitro MIC, agar dilution, Klebsiella pneumoniae W75-2; conditions: W752; Klebsiella pneumoniae W75-2; agar dilution, 35° C., 18 hours, nutrient agar; read-out: Minimal Inhibitory Concentration
Description: as §1

[5] = system: Staphylococcus aureus Q74-1; test: In vitro MIC, agar dilution, Staphylococcus aureus Q74-1; conditions: Q741; Staphylococcus aureus Q74-1; agar dilution, 35° C., 18 hours, nutrient agar; read-out: Minimal Inhibitory Concentration
Description: as §1

Escherichia coli W75-1 = test: In vitro MIC, agar dilution, Escherichia coli W75-1; conditions: W751, 35° C., 18 hours, nutrient agar, read-out: Minimal Inhibitory Concentration
Description: as §1

[6] = system: Enterobacter cloacae OSU75-2; test: In vitro MIC, agar dilution, Enterobacter cloacae OSU75-2; conditions: OSU752; Enterobacter cloacae OSU75-2; agar dilution, 35° C., 18 hours, nutrient agar; read-out: Minimal Inhibitory Concentration
Description: as §1

Enterococcus SM77-15 = test: In vitro MIC, agar dilution, Enterococcus SM77-15; conditions: SM7715; Enterococcus SM77-15; agar dilution, 35° C., 18 hours, nutrient agar; read-out: Minimal Inhibitory Concentration
Description: as §1

Serratia marcens K77-1 = test: In vitro MIC, agar dilution, Serratia marcens K77-1; conditions: K771; Serratia marcens K77-1; agar dilution, 35° C., 18 hours, nutrient agar; read-out: Minimal Inhibitory Concentration
Description: as §1

[7] = system: Escherichia coli ESS22-31; test: In vitro MIC, agar dilution, Escherichia coli ESS22-31; conditions: read-out: Minimal Inhibitory Concentration
Description: as §1

[8] = system: Enterobacter aerogenes UR76-3; test: In vitro MIC, agar dilution, Enterobacter aerogenes UR76-3; conditions: Klebsiella aerogenes, UR763; Enterobacter aerogenes UR76-3; agar dilution, 35° C., 18 hours, nutrient agar; read-out: Minimal Inhibitory Concentration
Description: as §1

Serratia K101 = test: In vitro MIC, agar dilution, Serratia K101; conditions: Serratia K101; agar dilution, 35° C., 18 hours, nutrient agar; read-out: Minimal Inhibitory Concentration
Description: as §1

[9] = system: Klebsiella pneumoniae W75-4; test: In vitro MIC, agar dilution, Klebsiella pneumoniae W75-4; conditions: W754; Klebsiella pneumoniae W75-4; agar dilution, 35° C., 18 hours, nutrient agar; read-out: Minimal Inhibitory Concentration
Description: as §1

[10] = system: Pseudomonas aeruginosa PD05141; test: In vitro MIC, agar dilution, Pseudomonas aeruginosa PD05141; conditions: Pseudomonas aeruginosa PD05141; agar dilution, 35° C., 18 hours, nutrient agar; read-out: Minimal Inhibitory Concentration
Description: as §1

[11] = system: Enterobacter cloacae MA75-1; test: In vitro MIC, agar dilution, Enterobacter cloacae MA75-1; conditions: MA751; Enterobacter cloacae MA75-1; agar dilution, 35° C., 18 hours, nutrient agar; read-out: Minimal Inhibitory Concentration
Description: as §1

Serratia marcens QHC77-2 = test: In vitro MIC, agar dilution, Serratia marcens QHC77-2; conditions: QHC772; Serratia marcens QHC77-2; agar dilution, 35° C., 18 hours, nutrient agar; read-out: Minimal Inhibitory Concentration
Description: as §1

[12] = system: Pseudomonas aeruginosa 12-4-4; test: In vitro MIC, agar dilution, Pseudomonas aeruginosa 12-4-4; conditions: 1244; Pseudomonas aeruginosa 12-4-4; agar dilution, 35° C., 18 hours, nutrient agar; read-out: Minimal Inhibitory Concentration
Description: as §1

Proteus morganii K72 = test: In vitro MIC, agar dilution, Proteus morganii K72; conditions: Morganella morganii; Proteus morganii K72; agar dilution, 35° C., 18 hours, nutrient agar; read-out: Minimal Inhibitory Concentration
Description: as §1

Klebsiella pneumoniae AD = test: In vitro MIC, agar dilution, Klebsiella pneumoniae AD; conditions: Klebsiella pneumoniae AD; agar dilution, 35° C., 18 hours, nutrient agar; read-out: Minimal Inhibitory Concentration
Description: as §1

[13] = system: Pseudomonas aeruginosa UCS 76-13; test: In vitro MIC, agar dilution, Pseudomonas aeruginosa UCS 76-13; conditions: UCS7613; Pseudomonas aeruginosa UCS 76-13; agar dilution, 35° C., 18 hours, nutrient agar; read-out: Minimal Inhibitory Concentration
Description: as §1

[14] = system: Klebsiella pneumoniae UR76-1; test: In vitro MIC, agar dilution, Klebsiella pneumoniae UR76-1; conditions: UR761; Klebsiella pneumoniae UR76-1; agar dilution, 35° C., 18 hours, nutrient agar; read-out: Minimal Inhibitory Concentration
Description: as §1

Proteus vulgaris N74-1 = test: In vitro MIC, agar dilution, Proteus vulgaris N74-1; conditions: N741, 35° C., 18 hours, nutrient agar, read-out: Minimal Inhibitory Concentration
Description: as §1

| Structure (SMILES) | MIC (Proteus rettgeri N76-1) [µg/mL] | MIC [1] [µg/mL] | MIC (Escherichia coli OSU75-1) [µg/mL] | MIC [3] [µg/mL] | MIC (Escherichia coli 311) [µg/mL] | MIC [4] [µg/mL] | MIC [5] [µg/mL] | MIC (Escherichia coli W75-1) [µg/mL] | MIC [6] [µg/mL] | MIC (Enterococcus SM77-15) [µg/mL] | MIC (Serratia marcens K77-1) [µg/mL] | MIC [8] [µg/mL] | MIC (Serratia K101) [µg/mL] | MIC [9] [µg/mL] | MIC [10] [µg/mL] | MIC [11] [µg/mL] | MIC (Serratia marcens QHC77-2) [µg/mL] | MIC [12] [µg/mL] | MIC (Proteus morganii K72) [µg/mL] | MIC (Klebsiella pneumoniae AD) [µg/mL] | other results |
| --- | --- | --- | --- | --- | --- | --- | --- | --- | --- | --- | --- | --- | --- | --- | --- | --- | --- | --- | --- | --- | --- |
| Nn1c(SCC2=C(C(=O)O)N3C(=O)C(NC(=O)Cc4cccs4)[C@H]3SC2)nnc1-n1cccn1 (stereo partly shown) [Compound IV, 7[2-(2-Thienyl)acetamido]-3-[4-amino-5-(1-pyrazolyl)-1,2,4-triazol-3-ylthiomethyl]-3-cephem-4-carboxylic acid] | > 128 | 0.25 (≈ 0.482 µM) | 4 (≈ 7.71 µM) | 2 (≈ 3.86 µM) | 4 (≈ 7.71 µM) | 2 (≈ 3.86 µM) | ≤ 0.12 | 8 (≈ 15.4 µM) | > 128 | 32 (≈ 61.7 µM) | > 128 | 1 (≈ 1.93 µM) | > 128 | 16 (≈ 30.9 µM) | > 128 | > 128 | > 128 | > 128 | > 128 | 4 (≈ 7.71 µM) | MIC ([2]; Pseudomonas aeruginosa, G236, 18 h): > 128 µg/mL; MIC ([7]; ESS2231, Escherichia coli ESS22-31, agar dilution, 35° C., 18 hours, nutrient agar): ≤ 0.06 µg/mL; MIC [13]: > 128 µg/mL; MIC [14]: > 128 µg/mL |
| N[C@@H](C(=O)NC1C(=O)N2C(C(=O)O)=C(CSc3n[nH]c(-n4cccn4)n3)CS[C@H]12)c1ccccc1.O=C(O)C(F)(F)F (stereo partly drawn) [Compound IX, 7-(D-2-Amino-2-phenylacetamido)-3-[5-(1-pyrazolyl)-1,2,4-triazol-3-ylthiomethyl]-3-cephem-4-carboxylic acid, trifluoroacetate salt] | > 128 | 1 | 16 | 16 | 16 | 32 | 4 | 16 | > 128 | > 128 | > 128 | 16 | > 128 | 32 | > 128 | > 128 | > 128 | > 128 | > 128 | 8 | MIC ([2]; Pseudomonas aeruginosa G236, agar dilution, 35° C., 18 hours, nutrient agar): > 128 µg/mL; MIC (Proteus vulgaris N74-1): > 128 µg/mL; MIC ([7]; Escherichia coli, ESS2231, 18 h): ≤ 0.12 µg/mL; MIC [13]: > 128 µg/mL; MIC [14]: > 128 µg/mL |
